Laboratory results: PMC6403271, “Characterization, mechanism of action and optimization of activity of a novel peptide-peptoid hybrid against bacterial pathogens involved in canine skin infections” (Scientific Reports, 2019)
Square brackets hold non-standard residues; d marks the D form. Peptide text beside a SMILES is read from it. N(1-naphthylmethyl)Gly = O=C(O)CNCc1cccc2ccccc12; 1Nal = N[C@@H](Cc1cccc2ccccc12)C(=O)O; 2Nal = N[C@@H](Cc1ccc2ccccc2c1)C(=O)O; Nphe = O=C(O)CNCc1ccccc1; NBuGly = CCCCNCC(=O)O

How the values were obtained:
[1] = test system: MRSP C22963; assay type: cell-based, Staphylococcus pseudintermedius; conditions: 18 h
Experimental: (§1) Activity of B1 was tested on 50P. aeruginosa isolates and 57S. pseudintermedius isolates (including 7 MRSP) that had been isolated in the diagnostic laboratory Sund Vet Diagnostik (University of Copenhagen) from various infections in dogs between 2009 and 2011. Representative MRSP (C22963), MSSA, and P. aeruginosa (26314) were used for testing the first set of B1 analogues.
(§2) MIC determination was performed by broth microdilution according to the Clinical and Laboratory Standard Institute (CLSI, M31-A3, 2008)[62]. In brief, each bacterial strain was diluted to concentration of 5 × 10^5 CFU/mL in Mueller Hinton broth II (MHB II) media (Oxoid) and added to a two-fold serial dilution of peptides and peptide-peptoid hybrids concentrations ranging from 1 to 64 µg/ml in 96-well plates (Nunc Internationals, Rochester, NY). The MICs were determined as a lowest concentration showing no visible growth after incubation for 18 hours at 37 °C. Experiments were performed in triplicates on two different days.

[2] = test system: MSSA (ATCC 29213); assay type: cell-based, Staphylococcus aureus; conditions: ATCC 29213, 18 h
Experimental: as §1, §2

[3] = test system: P. aeruginosa (26314); assay type: cell-based, Pseudomonas aeruginosa; conditions: 26314, 18 h
Experimental: Activity of B1 was tested on […]. aeruginosa isolates and […]. pseudintermedius isolates (including 7 MRSP) that had been isolated in the diagnostic laboratory Sund Vet Diagnostik (University of Copenhagen) from various infections in dogs between 2009 and 2011. Representative […], and P. aeruginosa (26314) were used for testing the first set of B1 analogues. For antibacterial spectrum the following strains were used: Corynebacterium auriscanis, 31551, (54 C6, dog, ear, 2013); Enterococcus faecalis, 27404, (17 C7, dog, wound, 2011); Enterococcus faecium, 30951, (24 C1, dog, ear, 2013); Streptococcus canis, 26740-1, (14 H1, dog, ear, 2010); Staphylococcus aureus, 27266, (16 G9, dog, skin, 2010); Staphylococcus aureus, 27266, (16 G9, dog, skin, 2010); Staphylococcus pseudintermedius 22963, (3 B9, dog, 2007). Acinetobacter baumannii, 27065, (16 D1, dog, wound, 2010); E. coli, 30235, 23 A6, dog, wound, 2012; Klebsiella pneumoniae, 26233, (11 H5, dog, wound, 2010); Pasteurella canis, 31096, (24 C8, dog, skin, 2013); Proteus mirabilis, 25178, (9 A4, dog, ear, 2009); Pseudomonas aeruginosa 26314, 12 C5, dog, urine, 2010). MIC determination was performed by broth microdilution according to the Clinical and Laboratory Standard Institute (CLSI, […]-A3, 2008)[62]. In brief, each bacterial strain was diluted to concentration of 5 × 10^5 CFU/mL in Mueller Hinton broth II (MHB II) media (Oxoid) and added to a two-fold serial dilution of peptides and peptide-peptoid hybrids concentrations ranging from 1 to 64 μg/ml in 96-well plates (Nunc Internationals, Rochester, NY). The MICs were determined as a lowest concentration showing no visible growth after incubation for 18 hours at 37 °C. Experiments were performed in triplicates on two different days.

[4] = assay type: cell-based, human; conditions: human
Experimental: Briefly, two-fold serial dilutions (2.35 to 150 μM) of compounds in phosphate buffer saline (PBS) were mixed with equal volume of 0.5% v/v suspension of fresh human red blood cells (RBC) in the same buffer. After 1 h incubation at 37 °C, plates were centrifuged and aliquots of the supernatants were transferred to clear 96-well plates. Absorbance at 414 nm was measured and normalized using a negative (PBS, 0%) and a positive (melittin, 100%) control. The EC10 and EC50 are concentrations at which 10% and 50% of RBC were lysed, respectively, as interpolated graphically by the y-axis intersection of the plotted data.

In the case of `CCCCN(CC(=O)N[C@@H](CCCCN)C(=O)N(CC(=O)N(CC(=O)N(CC(N)=O)Cc1cccc2ccccc12)Cc1ccccc1)Cc1cccc2ccccc12)C(=O)[C@H](CCCCN)NC(=O)[C@@H](N)CCCCN` [Compound 2, Lys-Lys-(NBu)Gly-Lys-(N1-Nal)Gly-(NPhe)Gly-(N1-Nal)Gly] (H-KK[NBuGly]K[N(1-naphthylmethyl)Gly][Nphe][N(1-naphthylmethyl)Gly]-NH2; N-terminus assumed), the “Minimum Inhibitory Concentration MRSP C22963” value [1] is reported as 4 µg/mL, the “Minimum Inhibitory Concentration MSSA (ATCC 29213)” value [2] is reported as 8 to 16 µg/mL and the “Minimum Inhibitory Concentration P. aeruginosa (26314)” value [3] is reported as 32 µg/mL. For the same compound, the hemolysis at 1 h, 150 µM [4] was under 8%.
For `CCCCN(CC(=O)N(CC(=O)N(CC(=O)N(CC(N)=O)Cc1cccc2ccccc12)Cc1ccccc1)Cc1cccc2ccccc12)C(=O)[C@H](CCCCN)NC(=O)[C@H](CCCCN)NC(=O)[C@@H](N)CCCCN` [Compound 3, Lys-Lys-Lys-(NBu)Gly-(N1-Nal)Gly-(NPhe)Gly-(N1-Nal)Gly] (H-KKK[NBuGly][N(1-naphthylmethyl)Gly][Nphe][N(1-naphthylmethyl)Gly]-NH2; N-terminus assumed), the “Minimum Inhibitory Concentration MRSP C22963” value [1] was 4 µg/mL, the “Minimum Inhibitory Concentration MSSA (ATCC 29213)” value [2] was 16 µg/mL and the “Minimum Inhibitory Concentration P. aeruginosa (26314)” value [3] was 32 µg/mL. It also gave a hemolysis at 1 h, 150 µM [4] of under 8%.
In the case of `CCCCN(CC(=O)N[C@@H](CCCCN)C(=O)N[C@@H](CCCCN)C(N)=O)C(=O)[C@H](CCCCN)NC(=O)CN(Cc1cccc2ccccc12)C(=O)CN(Cc1ccccc1)C(=O)CNCc1cccc2ccccc12` [Compound 5, (N1-Nal)Gly-(NPhe)Gly-(N1-Nal)Gly-Lys-(NBu)Gly-Lys-Lys] (H-[N(1-naphthylmethyl)Gly][Nphe][N(1-naphthylmethyl)Gly]K[NBuGly]KK-NH2; N-terminus assumed), the “Minimum Inhibitory Concentration MRSP C22963” value [1] is reported as 8 µg/mL, the “Minimum Inhibitory Concentration MSSA (ATCC 29213)” value [2] is reported as 16 µg/mL and the “Minimum Inhibitory Concentration P. aeruginosa (26314)” value [3] is reported as 32 µg/mL. The hemolysis at 1 h, 150 µM [4] was under 8%.
In the case of `CC(C)C[C@H](NC(=O)[C@H](CCCCN)NC(=O)[C@H](Cc1cccc2ccccc12)NC(=O)[C@H](Cc1ccccc1)NC(=O)[C@@H](N)Cc1cccc2ccccc12)C(=O)N[C@@H](CCCCN)C(=O)N[C@@H](CCCCN)C(N)=O` [Compound 10, (1-Nal)Ala-Phe-(1-Nal)Ala-Lys-Leu-Lys-Lys] (H-[1Nal]F[1Nal]KLKK-NH2; N-terminus assumed), the “Minimum Inhibitory Concentration MRSP C22963” value [1] is reported as 8 to 16 µg/mL, the “Minimum Inhibitory Concentration MSSA (ATCC 29213)” value [2] is reported as 16 to 32 µg/mL and the “Minimum Inhibitory Concentration P. aeruginosa (26314)” value [3] is reported as 64 µg/mL. It also gave a hemolysis at 1 h, 150 µM [4] of under 8%.
With `CC(C)C[C@H](NC(=O)[C@H](CCCCN)NC(=O)[C@H](Cc1ccc2ccccc2c1)NC(=O)[C@H](Cc1ccccc1)NC(=O)[C@@H](N)Cc1ccc2ccccc2c1)C(=O)N[C@@H](CCCCN)C(=O)N[C@@H](CCCCN)C(N)=O` [Compound 11, (2-Nal)Ala-Phe -(2-Nal)Ala-Lys-Leu-Lys-Lys] (H-[2Nal]F[2Nal]KLKK-NH2; N-terminus assumed) the “Minimum Inhibitory Concentration MRSP C22963” value [1] was 4 to 8 µg/mL, the “Minimum Inhibitory Concentration MSSA (ATCC 29213)” value [2] was 16 µg/mL and the “Minimum Inhibitory Concentration P. aeruginosa (26314)” value [3] was 64 µg/mL. For the same compound, the hemolysis at 1 h, 150 µM [4] was under 8%.
With `CC(C)C[C@H](NC(=O)[C@H](Cc1cccc2ccccc12)NC(=O)[C@H](Cc1ccccc1)NC(=O)[C@@H](N)Cc1cccc2ccccc12)C(=O)N[C@@H](CCCCN)C(=O)N[C@@H](CCCCN)C(=O)N[C@@H](CCCCN)C(N)=O` [Compound 12, (1-Nal)Ala-Phe-(1-Nal)Ala-Leu-Lys-Lys-Lys] (H-[1Nal]F[1Nal]LKKK-NH2; N-terminus assumed) the “Minimum Inhibitory Concentration MRSP C22963” value [1] was 16 µg/mL, the “Minimum Inhibitory Concentration MSSA (ATCC 29213)” value [2] was 32 µg/mL and the “Minimum Inhibitory Concentration P. aeruginosa (26314)” value [3] was over 64 µg/mL. It also gave a hemolysis at 1 h, 150 µM [4] of under 8%.
